Laboratory results: PMC11345841, “Exploring 2-Sulfonylpyrimidine Warheads as Acrylamide Surrogates for Targeted Covalent Inhibition: A BTK Story” (Journal of Medicinal Chemistry, 2024)
Like-named read-outs stand apart in the source and are kept apart here.

Columns and labels:
[1] = target: T1, TYK2(JH2domain-pseudokinase) (Homo sapiens, UniProt P29597); test: KINOMEscan ScanTK; format: binding
T1 construct: TYK2(JH2domain-pseudokinase); purchased Eurofins DiscoverX KINOMEscan (scanTK)

BTK, full length (2–659) = BTK, full length (2–659) (Homo sapiens, UniProt Q06187); test: PhosphoSens enzymatic IC50 (AssayQuant); format: biochemical; details: for IC50: 1 nM BTK, 1.0 mM ATP
Sequence of BTK, full length (2–659) (Q06187 2-659): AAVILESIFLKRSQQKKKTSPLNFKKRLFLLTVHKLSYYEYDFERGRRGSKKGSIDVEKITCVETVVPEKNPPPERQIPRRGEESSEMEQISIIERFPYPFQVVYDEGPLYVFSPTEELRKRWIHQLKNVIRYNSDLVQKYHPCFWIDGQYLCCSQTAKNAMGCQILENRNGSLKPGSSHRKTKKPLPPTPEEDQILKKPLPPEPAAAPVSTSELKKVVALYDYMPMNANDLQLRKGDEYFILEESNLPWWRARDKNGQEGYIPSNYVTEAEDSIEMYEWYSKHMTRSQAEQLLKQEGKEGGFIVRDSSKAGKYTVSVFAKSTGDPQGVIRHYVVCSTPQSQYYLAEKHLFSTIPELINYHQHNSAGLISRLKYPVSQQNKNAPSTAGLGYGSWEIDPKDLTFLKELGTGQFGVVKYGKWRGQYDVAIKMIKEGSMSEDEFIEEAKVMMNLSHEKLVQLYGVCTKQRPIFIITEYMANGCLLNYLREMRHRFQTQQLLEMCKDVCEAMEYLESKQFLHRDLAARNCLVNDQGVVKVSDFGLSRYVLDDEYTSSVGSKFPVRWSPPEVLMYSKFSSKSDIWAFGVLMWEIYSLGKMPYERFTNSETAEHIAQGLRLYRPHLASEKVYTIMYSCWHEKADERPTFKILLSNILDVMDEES
Description: (§1) Biochemical enzymatic IC50 data were generated by AssayQuant Technologies (Marlborough, MA) using the PhosphoSens Platform. […] Reaction rate versus log [inhibitor concentration] data were fitted to the four-parameter logistic equation [drawing 1]

[2] = target: T2, EGFR, cytoplasmic domain (669–1210) (Homo sapiens, UniProt P00533); test: PhosphoSens enzymatic IC50 (AssayQuant); format: biochemical; details: no preincubation
T2 construct: GST (N); purchased Carna Biosciences
Description: as §1

[3] = target: T3, EGFR(L747-E749del, A750P) (Homo sapiens, UniProt P00533, A750P/DEL747-749); test: KINOMEscan ScanTK; format: binding
T3 construct: purchased Eurofins DiscoverX KINOMEscan (scanTK)
T3 sequence (P00533 with tags, fused parts or gaps DEL747-749/A750P limits assumed): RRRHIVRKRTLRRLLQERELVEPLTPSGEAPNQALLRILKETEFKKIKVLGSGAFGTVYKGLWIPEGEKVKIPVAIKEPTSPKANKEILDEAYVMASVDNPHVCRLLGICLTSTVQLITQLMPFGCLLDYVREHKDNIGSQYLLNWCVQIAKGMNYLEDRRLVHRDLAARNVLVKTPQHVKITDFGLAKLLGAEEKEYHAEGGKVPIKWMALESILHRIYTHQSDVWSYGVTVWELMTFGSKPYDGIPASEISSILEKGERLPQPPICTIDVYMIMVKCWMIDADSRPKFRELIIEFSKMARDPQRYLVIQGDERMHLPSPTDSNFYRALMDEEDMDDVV

EGFR(L858R) = target: T4, EGFR(L858R) (Homo sapiens, UniProt P00533, L858R); test: KINOMEscan ScanTK; format: binding
T4 construct: purchased Eurofins DiscoverX KINOMEscan (scanTK)
T4 sequence (P00533 25-1210 L858R): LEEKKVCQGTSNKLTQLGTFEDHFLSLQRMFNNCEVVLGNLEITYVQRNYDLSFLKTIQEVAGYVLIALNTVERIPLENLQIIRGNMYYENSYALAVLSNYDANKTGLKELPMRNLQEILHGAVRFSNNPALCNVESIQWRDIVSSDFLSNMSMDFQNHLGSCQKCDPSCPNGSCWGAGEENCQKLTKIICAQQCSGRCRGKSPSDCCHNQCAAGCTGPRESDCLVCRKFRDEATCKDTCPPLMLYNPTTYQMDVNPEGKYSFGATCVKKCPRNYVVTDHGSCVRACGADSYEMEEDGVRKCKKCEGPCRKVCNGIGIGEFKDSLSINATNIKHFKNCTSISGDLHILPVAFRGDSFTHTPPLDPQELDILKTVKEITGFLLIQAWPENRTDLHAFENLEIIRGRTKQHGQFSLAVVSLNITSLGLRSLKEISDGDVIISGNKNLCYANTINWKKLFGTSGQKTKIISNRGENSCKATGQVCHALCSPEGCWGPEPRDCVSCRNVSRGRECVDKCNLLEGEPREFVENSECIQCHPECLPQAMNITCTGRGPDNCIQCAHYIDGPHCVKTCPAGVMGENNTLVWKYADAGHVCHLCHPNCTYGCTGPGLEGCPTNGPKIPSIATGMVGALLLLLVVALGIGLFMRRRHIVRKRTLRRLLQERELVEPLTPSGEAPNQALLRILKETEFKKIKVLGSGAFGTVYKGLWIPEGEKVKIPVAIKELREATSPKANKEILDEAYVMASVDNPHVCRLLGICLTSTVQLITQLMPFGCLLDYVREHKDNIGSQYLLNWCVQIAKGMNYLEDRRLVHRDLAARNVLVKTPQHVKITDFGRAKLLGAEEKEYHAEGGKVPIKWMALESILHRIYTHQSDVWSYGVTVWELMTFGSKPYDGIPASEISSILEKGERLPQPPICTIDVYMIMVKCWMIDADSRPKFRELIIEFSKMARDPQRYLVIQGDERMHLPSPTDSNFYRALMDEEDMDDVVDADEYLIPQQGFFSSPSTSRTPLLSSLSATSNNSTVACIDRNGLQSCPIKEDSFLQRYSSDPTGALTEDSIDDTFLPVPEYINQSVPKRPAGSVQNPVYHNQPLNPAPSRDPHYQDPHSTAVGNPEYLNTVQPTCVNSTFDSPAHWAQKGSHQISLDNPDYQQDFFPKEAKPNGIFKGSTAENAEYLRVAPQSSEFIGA

KIT(D816V) = target: T5, KIT(D816V) (Homo sapiens, UniProt P10721, D816V); test: KINOMEscan ScanTK; format: binding
T5 construct: purchased Eurofins DiscoverX KINOMEscan (scanTK)

DDR1 = target: T6, DDR1 (Homo sapiens, UniProt Q08345); test: KINOMEscan ScanTK; format: binding
T6 construct: purchased Eurofins DiscoverX KINOMEscan (scanTK)
T6 sequence (Q08345 19-913): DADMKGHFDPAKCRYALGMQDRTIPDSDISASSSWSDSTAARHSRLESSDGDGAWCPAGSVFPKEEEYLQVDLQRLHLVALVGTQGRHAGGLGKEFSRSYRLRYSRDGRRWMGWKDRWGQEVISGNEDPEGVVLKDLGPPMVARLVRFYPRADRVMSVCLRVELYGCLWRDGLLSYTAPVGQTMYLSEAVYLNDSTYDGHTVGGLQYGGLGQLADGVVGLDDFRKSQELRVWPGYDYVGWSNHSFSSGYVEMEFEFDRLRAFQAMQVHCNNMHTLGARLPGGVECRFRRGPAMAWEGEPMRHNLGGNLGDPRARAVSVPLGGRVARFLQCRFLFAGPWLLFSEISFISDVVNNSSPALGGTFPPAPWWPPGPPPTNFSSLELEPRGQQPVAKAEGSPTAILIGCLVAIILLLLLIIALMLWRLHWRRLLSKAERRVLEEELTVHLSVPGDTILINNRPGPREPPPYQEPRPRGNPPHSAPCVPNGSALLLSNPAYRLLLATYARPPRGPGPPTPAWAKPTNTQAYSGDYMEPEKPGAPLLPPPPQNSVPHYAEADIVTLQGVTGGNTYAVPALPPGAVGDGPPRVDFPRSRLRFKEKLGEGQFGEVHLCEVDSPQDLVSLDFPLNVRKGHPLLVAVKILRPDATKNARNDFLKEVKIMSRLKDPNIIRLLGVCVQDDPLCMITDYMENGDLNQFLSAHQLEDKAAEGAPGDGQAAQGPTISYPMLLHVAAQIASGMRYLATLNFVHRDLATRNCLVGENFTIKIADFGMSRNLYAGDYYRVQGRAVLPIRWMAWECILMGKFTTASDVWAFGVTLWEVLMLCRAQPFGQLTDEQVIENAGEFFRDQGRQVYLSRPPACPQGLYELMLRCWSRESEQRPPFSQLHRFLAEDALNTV

EPHB4 = target: T7, EPHB4 (Homo sapiens, UniProt P54760); test: KINOMEscan ScanTK; format: binding
T7 construct: purchased Eurofins DiscoverX KINOMEscan (scanTK)
T7 sequence (P54760 16-987): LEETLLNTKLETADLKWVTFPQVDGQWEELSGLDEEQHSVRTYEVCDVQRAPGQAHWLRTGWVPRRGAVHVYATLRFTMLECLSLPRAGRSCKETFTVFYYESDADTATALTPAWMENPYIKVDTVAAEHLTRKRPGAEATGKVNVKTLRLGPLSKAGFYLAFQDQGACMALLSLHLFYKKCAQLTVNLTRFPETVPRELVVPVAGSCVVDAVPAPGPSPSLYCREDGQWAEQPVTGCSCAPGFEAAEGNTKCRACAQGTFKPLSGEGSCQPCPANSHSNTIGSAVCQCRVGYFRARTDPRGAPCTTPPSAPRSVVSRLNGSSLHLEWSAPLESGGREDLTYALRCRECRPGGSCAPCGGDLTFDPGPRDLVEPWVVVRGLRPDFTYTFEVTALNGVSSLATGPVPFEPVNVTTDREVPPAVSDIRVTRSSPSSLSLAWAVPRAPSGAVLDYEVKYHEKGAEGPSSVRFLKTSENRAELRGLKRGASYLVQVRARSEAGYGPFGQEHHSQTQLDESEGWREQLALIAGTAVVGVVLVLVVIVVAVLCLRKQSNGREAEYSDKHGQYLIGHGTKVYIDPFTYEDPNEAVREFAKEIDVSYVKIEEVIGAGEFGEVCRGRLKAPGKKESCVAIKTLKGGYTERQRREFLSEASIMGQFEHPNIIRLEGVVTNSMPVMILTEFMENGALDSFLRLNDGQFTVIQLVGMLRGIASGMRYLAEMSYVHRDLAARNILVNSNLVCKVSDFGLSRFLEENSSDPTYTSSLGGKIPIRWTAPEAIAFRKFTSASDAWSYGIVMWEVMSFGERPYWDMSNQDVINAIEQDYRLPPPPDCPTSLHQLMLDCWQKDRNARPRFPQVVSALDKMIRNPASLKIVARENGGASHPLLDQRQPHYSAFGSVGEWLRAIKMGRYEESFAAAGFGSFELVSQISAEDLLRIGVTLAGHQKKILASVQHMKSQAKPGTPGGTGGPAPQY

[4] = target: T8, ABL1(F317L)-phosphorylated (Homo sapiens, UniProt P00519, F317L); test: KINOMEscan ScanTK; format: binding
T8 construct: purchased Eurofins DiscoverX KINOMEscan (scanTK)

MST1R = target: T9, MST1R (Homo sapiens, UniProt Q04912); test: KINOMEscan ScanTK; format: binding
T9 construct: purchased Eurofins DiscoverX KINOMEscan (scanTK)
T9 sequence (Q04912 25-1400): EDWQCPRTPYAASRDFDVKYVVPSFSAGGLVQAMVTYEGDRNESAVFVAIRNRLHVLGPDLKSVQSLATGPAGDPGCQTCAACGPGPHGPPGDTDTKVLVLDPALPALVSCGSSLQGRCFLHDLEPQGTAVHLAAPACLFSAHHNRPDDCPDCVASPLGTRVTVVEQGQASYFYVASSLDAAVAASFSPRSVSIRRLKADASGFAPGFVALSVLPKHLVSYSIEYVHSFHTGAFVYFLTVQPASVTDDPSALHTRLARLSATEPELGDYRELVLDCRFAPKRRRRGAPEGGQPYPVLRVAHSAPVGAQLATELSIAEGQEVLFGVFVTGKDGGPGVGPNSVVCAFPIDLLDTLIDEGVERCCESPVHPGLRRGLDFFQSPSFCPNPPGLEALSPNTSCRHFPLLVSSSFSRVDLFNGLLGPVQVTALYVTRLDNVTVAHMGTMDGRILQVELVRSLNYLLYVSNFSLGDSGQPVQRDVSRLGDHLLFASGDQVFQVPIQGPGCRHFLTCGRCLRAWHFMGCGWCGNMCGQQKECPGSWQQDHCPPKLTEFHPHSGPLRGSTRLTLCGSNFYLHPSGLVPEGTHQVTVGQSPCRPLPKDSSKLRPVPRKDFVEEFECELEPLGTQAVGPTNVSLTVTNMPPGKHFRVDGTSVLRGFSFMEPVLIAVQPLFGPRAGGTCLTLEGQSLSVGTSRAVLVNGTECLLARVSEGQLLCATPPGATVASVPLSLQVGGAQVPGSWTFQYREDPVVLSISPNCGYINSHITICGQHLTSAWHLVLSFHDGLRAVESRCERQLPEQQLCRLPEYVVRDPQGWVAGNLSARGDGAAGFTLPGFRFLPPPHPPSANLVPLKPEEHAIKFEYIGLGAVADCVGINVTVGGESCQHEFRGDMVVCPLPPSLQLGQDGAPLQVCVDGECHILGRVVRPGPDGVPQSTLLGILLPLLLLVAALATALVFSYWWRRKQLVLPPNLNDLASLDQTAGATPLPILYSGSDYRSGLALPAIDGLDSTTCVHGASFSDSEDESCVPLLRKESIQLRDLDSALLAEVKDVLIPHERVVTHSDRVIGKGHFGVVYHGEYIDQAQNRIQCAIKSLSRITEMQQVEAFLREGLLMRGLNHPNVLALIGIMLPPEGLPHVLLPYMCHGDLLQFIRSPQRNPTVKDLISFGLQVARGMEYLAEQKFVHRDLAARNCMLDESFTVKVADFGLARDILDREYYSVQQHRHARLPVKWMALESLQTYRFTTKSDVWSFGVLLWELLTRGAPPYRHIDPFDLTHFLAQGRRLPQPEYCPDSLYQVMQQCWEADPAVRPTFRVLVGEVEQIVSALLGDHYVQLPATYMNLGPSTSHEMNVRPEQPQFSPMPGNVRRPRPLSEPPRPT

[5] = target: T10, JAK1(JH1domain-catalytic) (Homo sapiens, UniProt P23458); test: KINOMEscan ScanTK; format: binding
T10 construct: JAK1(JH1domain-catalytic); purchased Eurofins DiscoverX KINOMEscan (scanTK)
T10 sequence (P23458 875-1154 limits assumed): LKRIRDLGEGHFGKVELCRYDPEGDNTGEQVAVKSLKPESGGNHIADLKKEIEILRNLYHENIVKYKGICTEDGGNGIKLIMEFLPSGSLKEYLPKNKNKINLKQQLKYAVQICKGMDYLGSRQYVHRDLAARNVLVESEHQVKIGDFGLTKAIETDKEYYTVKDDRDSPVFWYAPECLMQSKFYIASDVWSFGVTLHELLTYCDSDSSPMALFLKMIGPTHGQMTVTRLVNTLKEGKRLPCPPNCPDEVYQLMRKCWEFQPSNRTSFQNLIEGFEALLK

TEC = target: T11, TEC (Homo sapiens, UniProt P42680); test: KINOMEscan ScanTK; format: binding
T11 construct: purchased Eurofins DiscoverX KINOMEscan (scanTK)
T11 sequence (P42680 1-631): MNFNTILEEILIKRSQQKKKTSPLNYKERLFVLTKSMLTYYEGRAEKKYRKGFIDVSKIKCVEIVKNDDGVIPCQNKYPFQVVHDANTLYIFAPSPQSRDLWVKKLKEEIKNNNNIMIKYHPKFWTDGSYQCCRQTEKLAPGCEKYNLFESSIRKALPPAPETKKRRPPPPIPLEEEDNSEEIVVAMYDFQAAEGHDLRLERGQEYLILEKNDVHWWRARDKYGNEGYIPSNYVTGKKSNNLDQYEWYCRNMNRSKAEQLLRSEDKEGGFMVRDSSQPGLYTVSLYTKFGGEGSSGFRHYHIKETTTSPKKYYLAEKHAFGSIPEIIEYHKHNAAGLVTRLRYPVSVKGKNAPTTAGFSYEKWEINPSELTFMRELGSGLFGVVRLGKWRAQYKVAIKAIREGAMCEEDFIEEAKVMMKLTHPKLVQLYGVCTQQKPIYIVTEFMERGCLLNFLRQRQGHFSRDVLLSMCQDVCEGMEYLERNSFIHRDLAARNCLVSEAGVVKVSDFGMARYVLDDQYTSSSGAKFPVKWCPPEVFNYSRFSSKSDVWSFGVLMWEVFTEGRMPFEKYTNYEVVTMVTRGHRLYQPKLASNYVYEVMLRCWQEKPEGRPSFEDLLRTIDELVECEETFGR

[6] = target: T12, ABL1(H396P)-nonphosphorylated (Homo sapiens, UniProt P00519, H396P); test: KINOMEscan ScanTK; format: binding
T12 construct: purchased Eurofins DiscoverX KINOMEscan (scanTK)

T1 sequence (P29597 575-869 limits assumed): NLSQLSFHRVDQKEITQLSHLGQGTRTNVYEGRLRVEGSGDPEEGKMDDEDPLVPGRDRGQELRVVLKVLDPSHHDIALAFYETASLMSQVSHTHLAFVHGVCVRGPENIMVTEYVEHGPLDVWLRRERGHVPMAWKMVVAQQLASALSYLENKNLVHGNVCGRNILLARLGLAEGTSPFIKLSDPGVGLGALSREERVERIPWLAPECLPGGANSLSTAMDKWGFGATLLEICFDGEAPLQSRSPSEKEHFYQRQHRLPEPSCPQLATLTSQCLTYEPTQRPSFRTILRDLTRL

CNC(=O)c1cnc(S(C)(=O)=O)nc1N1CCCC(n2nc(-c3ccc(Oc4ccccc4)cc3)c3c(N)ncnc32)C1 (centres unmarked) [Compound 8d, 4-(3-(4-Amino-3-(4-phenoxyphenyl)-1H-pyrazolo[3,4-d]pyrimidin-1-yl)piperidin-1-yl)-N-methyl-2-(methylsulfonyl)pyrimidine-5-carboxamide]
difference in %Control versus Ib at 1 µM ([1]; @1000nM, read-out: % difference (compound - Ib %Control)): 8%
remaining binding at 1 µM ([1]; @1000nM, read-out: %Control): 96%
remaining binding at 1 µM ([1]; read-out: %Control @1000nM): 96%
IC50 (BTK, full length (2–659); 0 min preincubation IC50 (nM), 0 min preincubation): 3.6 nM
IC50 (BTK, full length (2–659); 60 min preincubation IC50 (nM), 60 min preincubation): 1.2 nM
fold change, 1 nM BTK (BTK, full length (2–659); IC50 0 min vs 60 min preincubation): 3.1
0 min IC50 (nM), 3 nM EGFR [2]: none of the compounds, 8a, 8b, or 8d, exhibited measurable inhibition
IC50 [2]: > 1000 nM
difference in %Control versus compound Ib at 1 µM ([3]; @1000nM): 48.9%
remaining binding at 1 µM ([3]; @1000nM, read-out: %Control): 52%
remaining binding at 1 µM ([3]; read-out: %Control @1000nM): 52%
%Control difference from compound Ib at 1 µM (EGFR(L858R); @1000nM): 39.1%
remaining binding at 1 µM (EGFR(L858R); @1000nM, read-out: %Control): 41%
remaining binding at 1 µM (EGFR(L858R); read-out: %Control @1000nM): 41%
remaining binding at 1 µM (KIT(D816V); @1000nM, read-out: %Control): 84%
remaining binding at 1 µM (KIT(D816V); read-out: %Control @1000nM): 84%
difference in %Control from compound Ib at 1 µM (DDR1; @1000nM): -14%
remaining binding at 1 µM (DDR1; @1000nM, read-out: %Control): 64%
remaining binding at 1 µM (DDR1; read-out: %Control @1000nM): 64%
difference in %Control from compound Ib at 1 µM (EPHB4; @1000nM): 0%
remaining binding at 1 µM (EPHB4; @1000nM, read-out: %Control): 100%
remaining binding at 1 µM (EPHB4; read-out: %Control @1000nM): 100%
difference in %Control from compound Ib at 1 µM ([4]; @1000nM): 39%
remaining binding at 1 µM ([4]; @1000nM, read-out: %Control): 76%
remaining binding at 1 µM ([4]; read-out: %Control @1000nM): 76%
remaining binding at 1 µM (MST1R; @1000nM, read-out: %Control): 100%
remaining binding at 1 µM (MST1R; read-out: %Control @1000nM): 100%
difference in %Control versus compound Ib at 1 µM ([5]; @1000nM): 6%
remaining binding at 1 µM ([5]; @1000nM, read-out: %Control): 100%
remaining binding at 1 µM ([5]; read-out: %Control @1000nM): 100%
remaining binding at 1 µM (TEC; @1000nM, read-out: %Control): 40%
remaining binding at 1 µM (TEC; read-out: %Control @1000nM): 40%
difference in %Control versus compound Ib at 1 µM ([6]; @1000nM): 28%
remaining binding at 1 µM ([6]; @1000nM, read-out: %Control): 42%
remaining binding at 1 µM ([6]; read-out: %Control @1000nM): 42%
